What was measured:
[1] = tested on: Mycobacterium tuberculosis; assay: Growth inhibition of multi-drug resistant Mycobacterium tuberculosis DQ707 harboring katG S315N mutant; type: functional
[2] = tested on: Mycobacterium tuberculosis; assay: Growth inhibition of multi-drug resistant Mycobacterium tuberculosis 05TB42059; type: functional

`Cc1c(-c2ccc(N3CCC(F)(F)C3)cc2)[nH]c2cc(F)cc(F)c2c1=O` was tested, and the IC50 [1] was 0.548 µM and the IC50 [2] was 0.14 µM.
